Experimental findings from EP2402356A2, “Modified 2',3'-dideoxynucleosides for treatment infections caused by human immunodeficiency virus (HIV) multidrug resistant strains, method of their synthesis and the pharmaceutical agent containing these nucleosides” (Instytut Biochemii I Biofizyki Pan, priority 2010, dated 2012) are described below.

The subject of one data set is Wild type #. The data set can be described thus: Antiviral activity (EC50) in CEMA and CEM-T4 cells. The class given is cell-based, HIV-1. The note with it: Human immunodeficiency virus 1; wild type # marked a,b = CEMA and CEM-T4 cells.
A short description of data set [1]: Cytotoxicity, Alamar Blue Cell Viability Assay. The note with it: deciphr cells. (Alamar Blue is a resazurin reagent that responds to reducing activity.)
The subject of the next data set is NRTI (RTMC) resistant. As to the kind of experiment: microbe, parasite or virus in culture. The class given is cell-based, HIV-1. The note with it: Human immunodeficiency virus 1.
For another data set, the system named is Wild type pNL4-3. The data set can be described thus: Antiviral activity (EC50), deCIPhR cell system, beta-galactosidase indicator cell readout. In kind it is cell-based, HIV-1.
In data set [2] the test system is NNRTI (RTMDR) 5 resistant. The data set can be described thus: microbe, parasite or virus in culture. The class given is cell-based, HIV-1. As to conditions: Human immunodeficiency virus 1.
The subject of data set [3] is Recombin ant provirus from the patient 6021959. As to the kind of experiment: microbe, parasite or virus in culture. The class given is cell-based, HIV-1.
Data set [4] concerns Recombin ant provirus from the patient 7007984. The data set can be described thus: microbe, parasite or virus in culture. In kind it is cell-based, HIV-1.
Setting [5] is: Human immunodeficiency virus 1, CEM-T4.
Where [6] appears, read: recombinant provirus from patient 7007984, RT resistant mutations M41 L, K70R, A985, T215Y, read-out: EC50.
Setting [7] is: HIV-1 wild type pNL4-3, cells per table title (deCIPhR, CEMA, CEM-T4), row has no cell mark, presumably deCIPhR, read-out: EC50.
[8] abbreviates: recombinant provirus from patient 6021959, RT resistance mutations M41 L, E44D, T69D, L741, K103N, V108I, V118I, M184V, M230L, T215Y, G333E, read-out: EC50.

Like-named read-outs stand apart in the source and are kept apart here. Where only a bound is given, the exact number is not on record here.

Turning to `CCSCCCCCCCCCCC(=O)OC[C@H]1O[C@@H](n2cc(C)c(=S)[nH]c2=O)C[C@@H]1F` [WA-2 3, 1-(5-O-(2,3-dideoxy-11-thioethylundecanoyl)-3-fluoro-b-D-ribofuranosyl)-4-thiothymine], the concentration for a half-maximal effect (EC50) – broadly, the concentration that produces a half-maximal response – with Wild type # worked out at 450 nM; in the data set on NRTI (RTMC) resistant it was 450 nM; in the data set with Wild type pNL4-3 (setting [5]) it was 965 nM; in data set [2], 480 nM; in data set [3] (Human immunodeficiency virus 1), 5520 nM. Moreover, the CC50 (commonly the concentration at which the toxic effect on the cells reaches its halfway point) in data set [1] was more than 200000 nM. In the data set with deCIPhR™ cell system, the “cytotoxicity (CD50)” value is “not toxic”.

On to `CCSCCCCCCCCCCCC(=O)OC[C@H]1O[C@@H](n2cc(C)c(=S)[nH]c2=O)C[C@@H]1F` [WA-2 2, 1-(2,3-dideoxy-5-O-(12-thioethyldodecanoyl)-3-fluoro-b-D-ribofuranosyl)-4-thiothymine], for which the EC50 in data set [4] (Human immunodeficiency virus 1) was 5920 nM; in the data set with Wild type #, 120 nM; in the data set with NRTI (RTMC) resistant it was 75 nM; with Wild type pNL4-3 (setting [5]) it was 998 nM; in data set [3] (Human immunodeficiency virus 1), 10000 nM. In data set [1], the CC50 was more than 200000 nM. The “cytotoxicity (CD50)” value with deCIPhR™ cell system is “not toxic”.

With `Cc1cn([C@H]2C[C@H](N=[N+]=[N-])[C@@H](COP(=O)(O)O)O2)c(=O)[nH]c1=O` [AZTM P, reference compound], the EC50 in data set [4] (setting [6]) was 1030 nM; in the data set on Wild type pNL4-3 (setting [7]) it was 63 nM; in data set [3] (setting [8]), 1710 nM.

`Cc1cn([C@H]2C[C@H](F)[C@@H](COC(=O)CCCCCCCCCCCN=[N+]=[N-])O2)c(=O)[nH]c1=S` [WA- 2 0, 1-(5-O-(12-azidododecanoyl)-2,3-dideoxy-3-fluoro-b-D-ribofuranosyl)-4-thi othymine]: the 50% effective concentration (EC50) in data set [4] (Human immunodeficiency virus 1) was 2880 nM; in the data set with Wild type # it was 450 nM; with NRTI (RTMC) resistant, not above 100000 nM; in the data set on Wild type pNL4-3 (setting [5]), 822 nM; in data set [2], 100 nM; in data set [3] (Human immunodeficiency virus 1), 4640 nM. This molecule also had a cytotoxic concentration (CC50) in data set [1] of more than 200000 nM. In the data set with deCIPhR™ cell system, the “cytotoxicity (CD50)” value is “not toxic”.

Consider `CCCCCCCCCCCCCC(=O)OC[C@H]1O[C@@H](n2cc(C)c(=S)[nH]c2=O)C[C@@H]1F` [WA- 18, 1-(2,3-dideoxy-3-fluoro-5-O-(12-tetradodecanoyl)-b-D-ribofuranosyl)-4-thio thymine], for which the EC50 came to 2400 nM in data set [4] (Human immunodeficiency virus 1); 130 nM in the data set with Wild type #; 150 nM in the data set on NRTI (RTMC) resistant; 421 nM with Wild type pNL4-3 (setting [5]); 45 nM in data set [2]; 8340 nM in data set [3] (Human immunodeficiency virus 1). In data set [1], the cytotoxic concentration (CC50) is more than 200000 nM. For the same molecule, the “cytotoxicity (CD50)” value with deCIPhR™ cell system is listed as “not toxic”.

In the case of `COCCCCCCCCCCCC(=O)OC[C@H]1O[C@@H](n2cc(C)c(=S)[nH]c2=O)C[C@@H]1F` [WA2 1, 1-(2,3-dideoxy-3-fluoro-5-O-(12-methoxydodecanoyl)-b-D-ribofuranosyl)-4-thiothymine], the EC50 in data set [4] (Human immunodeficiency virus 1) is 3150 nM; in the data set on Wild type #, 330 nM; with NRTI (RTMC) resistant it was 180 nM; in the data set on Wild type pNL4-3 (setting [5]), 269 nM; in data set [2], 550 nM; in data set [3] (Human immunodeficiency virus 1), 9260 nM. In data set [1], this molecule came in with a CC50 of more than 200000 nM. Moreover, in the data set on deCIPhR™ cell system, the “cytotoxicity (CD50)” value was “not toxic”.

With `Cc1cn([C@H]2C[C@H](F)[C@@H](COP(=O)(O)O)O2)c(=O)[nH]c1=O` [FLT MP, reference compound], the figures for the EC50 (in data set [4] (setting [6]); in the data set with Wild type pNL4-3 (setting [7]); in data set [3] (setting [8])) were 18 nM, 10 nM and 30 nM, respectively.

In data set [1], `Cc1cn([C@H]2C[C@H](F)[C@@H](COC(=O)CCCCCCCCCCCBr)O2)c(=O)[nH]c1=S` [WA- 19, 1-(5-O-(12-bromododecanoyl)-2.3-dideoxy-3-fluoro-b-D-ribofuranosyl)-4-th iothymine] displayed a 50% cytotoxic concentration (CC50) of more than 200000 nM. Besides, the EC50 in the data set on Wild type pNL4-3 (setting [5]) was 710 nM; in data set [3] (Human immunodeficiency virus 1) it was 10000 nM. Further, in the data set on deCIPhR™ cell system, the “cytotoxicity (CD50)” value is “not toxic”.
